The source of these data is PMC4490613 (Journal of Neuroinflammation, 2015).

For assay [1], the target named is T1, hCB2 (Homo sapiens, UniProt P34972).
T1 construct: gene CNR2; full-length receptor in CHO-K1 cells, membranes or intact cells; PathHunter CHO-K1-HOMSA-CNR2 for beta-arrestin
The assay can be described thus: […]GTPγS binding, CHO-hCB2 membranes. It counts as biochemical.

The target of assay [2] is T1, hCB2. The assay can be described thus: forskolin-induced cAMP, GloSensor, CHO-hCB2 cells. It counts as cell-based. Particulars: read-out: CHO cells / h CB2 cAMP. An excerpt:
forskolin-induced cAMP, GloSensor, CHO-hCB2 cells on hCB2

The target in assay [3] is T1, hCB2. The assay can be described thus: [3H]CP55, […] displacement, CHO membranes. The class given is binding.
Assay [4] has as its target T2, hCOX-2 (Homo sapiens, UniProt P35354).
T2 construct: gene PTGS2
T2 sequence (P35354 18-604): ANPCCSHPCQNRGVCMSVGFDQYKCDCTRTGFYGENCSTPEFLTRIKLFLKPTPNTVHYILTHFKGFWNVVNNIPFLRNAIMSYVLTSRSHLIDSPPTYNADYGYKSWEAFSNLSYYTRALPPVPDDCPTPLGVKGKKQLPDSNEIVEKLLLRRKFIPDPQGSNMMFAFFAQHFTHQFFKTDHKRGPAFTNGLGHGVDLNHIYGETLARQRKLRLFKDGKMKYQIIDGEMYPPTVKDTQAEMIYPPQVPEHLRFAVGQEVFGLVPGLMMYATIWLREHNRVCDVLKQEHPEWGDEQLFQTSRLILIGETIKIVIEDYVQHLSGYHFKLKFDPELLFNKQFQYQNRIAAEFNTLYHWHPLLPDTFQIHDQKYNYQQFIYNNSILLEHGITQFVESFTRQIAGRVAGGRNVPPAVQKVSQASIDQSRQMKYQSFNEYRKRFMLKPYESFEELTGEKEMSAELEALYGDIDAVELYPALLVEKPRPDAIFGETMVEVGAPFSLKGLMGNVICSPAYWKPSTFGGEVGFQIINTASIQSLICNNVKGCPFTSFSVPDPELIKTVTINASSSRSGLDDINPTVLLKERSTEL
The assay can be described thus: fluorescent COX inhibitor assay (ADHP), recombinant hCOX-2. The class given is biochemical. Particulars: read-out: h COX-2 / AA. An excerpt: fluorescent COX inhibitor assay (ADHP), recombinant hCOX-2 on hCOX-2

The target in assay [5] is T3, hCB1 (Homo sapiens, UniProt P21554).
T3 construct: gene CNR1; full-length receptor in CHO cell membranes
T3 sequence (P21554 whole entry): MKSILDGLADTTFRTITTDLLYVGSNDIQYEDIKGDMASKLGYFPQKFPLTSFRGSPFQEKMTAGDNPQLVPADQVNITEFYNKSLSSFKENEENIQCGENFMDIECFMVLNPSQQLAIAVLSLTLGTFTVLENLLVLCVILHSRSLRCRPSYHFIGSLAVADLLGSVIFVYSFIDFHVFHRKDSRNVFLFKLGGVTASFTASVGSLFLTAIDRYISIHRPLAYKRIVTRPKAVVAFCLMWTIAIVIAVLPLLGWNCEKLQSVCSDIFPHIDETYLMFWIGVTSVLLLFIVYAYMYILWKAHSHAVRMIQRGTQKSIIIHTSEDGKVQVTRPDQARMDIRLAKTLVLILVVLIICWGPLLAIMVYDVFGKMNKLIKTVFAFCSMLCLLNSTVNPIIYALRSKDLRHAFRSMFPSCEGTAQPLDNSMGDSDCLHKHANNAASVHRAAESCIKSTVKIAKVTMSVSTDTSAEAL
As to the kind of experiment: [3H]CP55, […] displacement, CHO membranes. It counts as binding. The following applies: read-out: CHO membranes / h CB 1.

The target in assay [6] is T1, hCB2. As to the kind of experiment: […]GTPγS binding, CHO-hCB2 membranes. The class given is biochemical. Particulars: read-out: CHO membranes / h CB2 [ ^35 S] GTPγS.
Setting [7] is: read-out: CHO membranes / h CB 2.

Like-named read-outs stand apart in the source and are kept apart here.

T1 sequence (P34972 whole entry): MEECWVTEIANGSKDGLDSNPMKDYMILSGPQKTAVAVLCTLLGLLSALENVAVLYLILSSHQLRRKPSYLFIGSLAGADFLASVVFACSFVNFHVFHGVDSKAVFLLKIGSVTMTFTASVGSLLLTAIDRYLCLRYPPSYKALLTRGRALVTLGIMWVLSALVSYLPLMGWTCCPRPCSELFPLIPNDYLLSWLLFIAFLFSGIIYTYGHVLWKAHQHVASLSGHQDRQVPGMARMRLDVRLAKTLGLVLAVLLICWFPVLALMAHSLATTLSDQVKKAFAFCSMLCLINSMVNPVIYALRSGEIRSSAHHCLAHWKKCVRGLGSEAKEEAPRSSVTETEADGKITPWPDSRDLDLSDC

With `C=CCc1ccc(OC)c(-c2ccc(O)c(CC=C)c2)c1` [27a, 2-methoxy-5,3′-di-(2-propenyl)-biphenyl-4′-ol], the EC50 in assay [1] (read-out: CHO membranes / h CB2 [ ^35 S] GTPγS) was 180 ± 90 nM. Besides, the IC50 came to 710 ± 90 nM in assay [2] and 1210 ± 80 nM in assay [4]. For the same molecule, the Ki in assay [3] (setting [7]) turned out to be 110 ± 90 nM; in assay [5], 790 ± 100 nM.
As for `CCC(C)c1ccc(O)c(-c2cc(C(C)CC)ccc2O)c1` (stereo not shown) [compound 32, 5,5′-di-sec-butyl-biphenyl-2,2′-diol], the Ki in assay [3] was over 10000 nM. Further, in assay [4], the IC50 stood at 10200 ± 120 nM.
For `C=CCc1ccc(OCCCC)c(-c2ccc(O)c(CC=C)c2)c1` [34a, 2-butyloxy-5,3′-di-(2-propenyl)-biphenyl-4′-ol], the figures for the Ki in assay [3] (setting [7]) and in assay [5] were 350 ± 110 nM and 1120 ± 150 nM, respectively. The figures for the IC50 in assay [6] and in assay [4] were 1820 ± 140 nM and 4310 ± 100 nM, respectively.
`CCCCC/C=C\C/C=C\C/C=C\C/C=C\CCCC(=O)OC(CO)CO` [2-AG]: the EC50 in assay [1] (read-out: EC50) was found to be 74 nM.
Turning to `C=CCc1ccc(O)c(-c2ccc(OC)c(CC=C)c2)c1` [MH, 4′-methoxy-5,3′-di-(2-propenyl)-biphenyl-2-ol], in assay [4] (substrate arachidonic acid 10 μM, heme, pH 8, 15 min pre-incubation, RT), the IC50 was found to be 580 ± 80 nM.
